We go through 1 molecule from US20250120975A1, “INTEGRIN INHIBITORS FOR TREATMENT OF PRIMARY SCLEROSING CHOLANGITIS” (Pliant Therapeutics, Inc., priority 2023, published 2025).

The test system of assay [1] is BALB/c.Mdr2−/− mouse model of biliary fibrosis. Put plainly: Direct (invasive) portal venous pressure measurement. The format is in vivo. The settings on record: 100, 300, 1000 mg/kg PO/QD, 6 weeks. The method, then: Antifibrotic activity of (S)-4-((2-methoxyethyl)(4-(5,6,7,8-tetrahydro-1,8-naphthyridin-2-yl)butyl)amino)-2-(quinazolin-4-ylamino)butanoic acid was tested in the BALBc.Mdr2−/− murine model of liver biliary fibrosis. […] BALBc.Mdr2−/− mice develop periductular fibrotic lesions at 4 weeks with rapid and progressive fibrotic progression. Bridging fibrosis and early cirrhosis is observed at 12 weeks along with severe portal hypertension and enhanced collagen deposition.
The tissue source is BALBc.Mdr2-/−male mice that were 6 weeks old. The Mdr2(abcb4)−/− mouse model of sclerosing cholangitis has been previously described and is a model of spontaneously progressive hepatic fibrosis in mice with deletion of the biliary phospholipid flippase on fibrosis-susceptible background (Mdr2(abcb4)^−/−. BALB/c mouse). See N. Ikenaga, et al. (2015) Am J Pathol. 185 (2): 325-334, the entire contents of which are hereby incorporated by reference in their entirety. […]
After laparotomy, the portal vein of the mouse subject was cannulated through an ileocolic vein, and portal pressure was measured directly by inserting a 1.2-Fr high-fidelity pressure catheter. Pressure signals were recorded at 2 kHz for 5 Min, and analyzed using PowerLab software. […]

Another assay addresses αVβ1 integrin (Homo sapiens, UniProt P05556+P06756). The assay can be described thus: Inhibition of αVβ1 integrin (IC50). As to conditions: read-out: 50% inhibitory concentration [IC50] αVβ1. The format is binding.
A further assay addresses αVβ6 integrin (Homo sapiens, UniProt P06756+P18564). The assay can be described thus: Inhibition of αVβ6 integrin (IC50). As to conditions: read-out: 50% inhibitory concentration [IC50] αVβ6. Type of assay: binding.

Chain of αVβ1 integrin (P06756 31-1048): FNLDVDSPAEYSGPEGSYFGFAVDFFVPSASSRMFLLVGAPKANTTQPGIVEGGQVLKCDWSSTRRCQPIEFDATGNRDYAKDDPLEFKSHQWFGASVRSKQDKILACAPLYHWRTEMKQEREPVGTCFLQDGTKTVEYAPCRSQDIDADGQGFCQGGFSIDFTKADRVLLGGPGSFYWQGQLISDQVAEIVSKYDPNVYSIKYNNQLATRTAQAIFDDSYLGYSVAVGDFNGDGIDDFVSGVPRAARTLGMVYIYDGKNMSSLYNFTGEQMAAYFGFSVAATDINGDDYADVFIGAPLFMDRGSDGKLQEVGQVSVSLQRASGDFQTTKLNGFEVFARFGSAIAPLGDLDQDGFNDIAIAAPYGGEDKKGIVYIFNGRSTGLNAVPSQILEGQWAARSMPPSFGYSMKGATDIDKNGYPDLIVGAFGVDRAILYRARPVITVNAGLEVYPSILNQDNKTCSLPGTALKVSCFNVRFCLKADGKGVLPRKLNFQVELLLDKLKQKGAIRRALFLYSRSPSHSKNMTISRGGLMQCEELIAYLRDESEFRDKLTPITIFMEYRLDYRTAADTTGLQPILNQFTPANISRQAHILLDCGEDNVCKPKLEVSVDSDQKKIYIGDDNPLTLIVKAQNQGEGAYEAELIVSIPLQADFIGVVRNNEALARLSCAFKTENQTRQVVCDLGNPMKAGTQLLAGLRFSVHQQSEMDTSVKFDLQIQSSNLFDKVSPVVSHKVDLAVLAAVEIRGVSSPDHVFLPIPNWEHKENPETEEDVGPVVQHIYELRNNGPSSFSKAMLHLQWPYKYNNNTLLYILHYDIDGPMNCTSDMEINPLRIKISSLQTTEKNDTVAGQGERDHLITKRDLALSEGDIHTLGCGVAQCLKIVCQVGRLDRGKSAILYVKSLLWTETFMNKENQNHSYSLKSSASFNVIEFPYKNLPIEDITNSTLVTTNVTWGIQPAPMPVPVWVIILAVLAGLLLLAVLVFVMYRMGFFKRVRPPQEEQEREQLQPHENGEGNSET
Chain of αVβ1 integrin (P05556 21-798): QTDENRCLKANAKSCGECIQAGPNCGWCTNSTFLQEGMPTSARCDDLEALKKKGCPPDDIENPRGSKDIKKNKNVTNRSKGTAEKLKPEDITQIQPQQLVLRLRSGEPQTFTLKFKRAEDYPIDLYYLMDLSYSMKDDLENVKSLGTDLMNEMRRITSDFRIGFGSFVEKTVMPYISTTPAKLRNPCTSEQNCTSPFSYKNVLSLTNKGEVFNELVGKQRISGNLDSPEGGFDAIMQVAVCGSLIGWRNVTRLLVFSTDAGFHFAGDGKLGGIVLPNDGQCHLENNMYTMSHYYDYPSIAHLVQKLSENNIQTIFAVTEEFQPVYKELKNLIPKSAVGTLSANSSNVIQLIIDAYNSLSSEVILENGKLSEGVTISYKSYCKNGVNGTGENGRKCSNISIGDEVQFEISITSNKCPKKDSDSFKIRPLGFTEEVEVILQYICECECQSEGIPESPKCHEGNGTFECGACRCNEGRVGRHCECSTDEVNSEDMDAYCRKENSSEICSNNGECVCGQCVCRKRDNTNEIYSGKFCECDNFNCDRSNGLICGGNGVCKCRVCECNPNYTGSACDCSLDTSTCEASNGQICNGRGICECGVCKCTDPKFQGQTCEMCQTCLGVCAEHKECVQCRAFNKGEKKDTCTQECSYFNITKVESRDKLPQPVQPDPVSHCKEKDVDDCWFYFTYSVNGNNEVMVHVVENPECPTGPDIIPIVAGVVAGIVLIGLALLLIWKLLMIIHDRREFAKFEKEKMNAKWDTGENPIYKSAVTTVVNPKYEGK
Chain of αVβ6 integrin (P06756 31-1048): as the sequence (P06756 31-1048) above
Chain of αVβ6 integrin (P18564 22-788): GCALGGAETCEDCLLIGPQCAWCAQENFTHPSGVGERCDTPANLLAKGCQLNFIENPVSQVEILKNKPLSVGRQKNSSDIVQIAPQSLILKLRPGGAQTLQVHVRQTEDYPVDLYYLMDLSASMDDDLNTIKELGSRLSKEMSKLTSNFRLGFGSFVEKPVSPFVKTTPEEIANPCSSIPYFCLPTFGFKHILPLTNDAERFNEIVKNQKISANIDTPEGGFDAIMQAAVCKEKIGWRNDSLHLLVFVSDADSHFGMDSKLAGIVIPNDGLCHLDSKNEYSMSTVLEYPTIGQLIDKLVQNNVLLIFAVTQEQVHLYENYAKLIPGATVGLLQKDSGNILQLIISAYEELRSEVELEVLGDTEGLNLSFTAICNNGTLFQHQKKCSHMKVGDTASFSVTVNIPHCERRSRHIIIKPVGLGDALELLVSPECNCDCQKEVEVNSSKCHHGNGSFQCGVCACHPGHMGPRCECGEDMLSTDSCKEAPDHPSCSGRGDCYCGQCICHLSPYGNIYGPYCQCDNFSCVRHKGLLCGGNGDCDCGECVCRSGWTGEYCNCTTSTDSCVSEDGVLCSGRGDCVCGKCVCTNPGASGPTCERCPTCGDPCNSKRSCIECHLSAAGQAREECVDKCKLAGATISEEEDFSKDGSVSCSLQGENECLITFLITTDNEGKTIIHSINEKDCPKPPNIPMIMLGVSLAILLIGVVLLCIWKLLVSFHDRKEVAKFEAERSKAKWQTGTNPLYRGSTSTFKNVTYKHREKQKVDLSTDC

Take `COCCN(CCCCc1ccc2c(n1)NCCC2)CC[C@H](Nc1ncnc2ccccc12)C(=O)O` [Bexotegrast, (S)-4-((2-methoxyethyl)(4-(5,6,7,8-tetrahydro-1,8-naphthyridin-2-yl)butyl)amino)-2-(quinazolin-4-ylamino)butanoic acid]: the portal venous pressure entry in assay [1] is “did not induce any changes”. The IC50 at αVβ1 integrin stood at 3.4 nM; on αVβ6 integrin, 5.7 nM.
